Measured values as given in ChEMBL document CHEMBL1201862, “PubChem BioAssay data set” (2004).
Calls of active or inactive are those of the source.

Columns and labels:
[1] = biological target: T1, Carboxy-terminal domain RNA polymerase II polypeptide A small phosphatase 1 (Homo sapiens, UniProt Q9GZU7); test: CTDSP1 inhibitors, concentration-response, biochemical, absorbance readout, ultra-high-throughput screen actives (AID 540297); type: functional
T1 sequence (Q9GZU7 whole entry): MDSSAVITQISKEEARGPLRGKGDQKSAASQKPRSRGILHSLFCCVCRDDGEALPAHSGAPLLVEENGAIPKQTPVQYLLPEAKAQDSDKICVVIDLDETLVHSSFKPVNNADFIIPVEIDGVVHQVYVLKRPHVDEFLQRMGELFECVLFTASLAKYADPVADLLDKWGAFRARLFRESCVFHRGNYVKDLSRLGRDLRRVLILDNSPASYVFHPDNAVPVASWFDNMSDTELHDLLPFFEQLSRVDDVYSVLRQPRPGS

[2] = biological target: FAD-linked sulfhydryl oxidase ALR (Homo sapiens, UniProt P55789); test: ALR-catalysed DTT oxidation blockers – biochemical, H2O2 detection, luminescence, cherry-pick, dose response (AID 493248)
[3] = NIH-3T3 fibroblast cytotoxicity, dose response, cytotoxicity control, cell-based, fluorescence, Alamar Blue, secondary assay (AID 2327); type: functional;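 note: NIH-3T3 mouse fibroblasts cultured with fluconazole at 8 µg/mL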
[4] = biological target: T2, Heat shock factor protein 1 (Mus musculus, UniProt P38532); test: decrease of HSF1-responsive luciferase luminescence – cell-based, NIH3T3, dose retest, confirmation (AID 2382); type: functional;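 note: NIH3T3 fibroblasts with HSF1-driven luciferase reporter stressed by proteasome inhibitor MG132; luminescence from HSF1-driven luciferase expression after 8 hours of MG132 stress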
T2 sequence (P38532 whole entry): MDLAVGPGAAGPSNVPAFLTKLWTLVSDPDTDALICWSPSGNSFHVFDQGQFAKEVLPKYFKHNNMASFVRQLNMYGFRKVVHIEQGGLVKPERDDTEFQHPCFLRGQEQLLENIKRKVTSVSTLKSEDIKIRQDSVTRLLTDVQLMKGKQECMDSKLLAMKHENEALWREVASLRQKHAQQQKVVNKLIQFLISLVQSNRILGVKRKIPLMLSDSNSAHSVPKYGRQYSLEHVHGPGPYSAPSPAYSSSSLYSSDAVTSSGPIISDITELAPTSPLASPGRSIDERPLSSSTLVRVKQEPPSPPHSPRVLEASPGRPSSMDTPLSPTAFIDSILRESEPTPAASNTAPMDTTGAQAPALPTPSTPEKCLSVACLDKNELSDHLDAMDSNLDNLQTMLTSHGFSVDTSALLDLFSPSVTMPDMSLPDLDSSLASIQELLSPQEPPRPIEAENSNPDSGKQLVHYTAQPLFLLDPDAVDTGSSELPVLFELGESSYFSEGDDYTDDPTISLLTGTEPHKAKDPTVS

[5] = fluconazole-exposed Candida albicans growth modulators – fluorescence, retest, confirmation (AID 2467); type: functional, cell-based
[6] = Trypanosoma cruzi growth suppression in host cells – NIH3T3 host cells, beta-gal luminescence, confirmation (AID 2044); type: functional, cell-based;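 note: intracellular parasites grown in NIH/3T3 mouse fibroblasts as host cells; luminescent beta-galactosidase reporter signal from transgenic T. cruzi replicating inside host cells; inhibitors lower the luminescence signal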
[7] = NIH3T3 cell viability loss – ATP luminescence, mouse fibroblasts, counter-screen, dose response (AID 2010); type: functional, cell-based;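 note: cells exposed to compound for about 90 hours before reading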
[8] = biological target: T3, Microphthalmia-associated transcription factor (Homo sapiens, UniProt O75030); test: reducers of TRPM1 reporter luminescence, concentration series – cell-based, SK-MEL-5, cherry-picked, set 3, MITF inhibitor project, dose response (AID 493073); type: functional;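 note: SK-MEL-5 melanoma cells with luciferase driven by the MITF target TRPM1 promoter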
T3 sequence (O75030 whole entry): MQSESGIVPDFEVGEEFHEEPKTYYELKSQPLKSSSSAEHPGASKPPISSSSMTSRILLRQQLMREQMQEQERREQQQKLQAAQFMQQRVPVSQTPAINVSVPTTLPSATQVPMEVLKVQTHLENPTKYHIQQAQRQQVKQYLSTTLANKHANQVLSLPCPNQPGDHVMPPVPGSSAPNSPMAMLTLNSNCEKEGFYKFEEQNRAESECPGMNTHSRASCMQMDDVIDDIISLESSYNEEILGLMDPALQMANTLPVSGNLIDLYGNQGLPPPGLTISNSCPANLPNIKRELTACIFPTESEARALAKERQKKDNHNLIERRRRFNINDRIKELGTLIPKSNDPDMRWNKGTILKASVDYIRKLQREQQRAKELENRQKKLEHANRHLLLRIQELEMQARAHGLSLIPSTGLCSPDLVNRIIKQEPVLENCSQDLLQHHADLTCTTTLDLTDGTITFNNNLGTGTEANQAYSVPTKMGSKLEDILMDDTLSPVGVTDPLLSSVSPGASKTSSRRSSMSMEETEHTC

[9] = biological target: T4, Replicative DNA helicase DnaB (Mycobacterium tuberculosis, UniProt P9WMR3); test: DnaB intein splicing inhibitors, dose response, biochemical, cell-free fluorescence (AID 449749); type: functional
T4 sequence (P9WMR3 whole entry): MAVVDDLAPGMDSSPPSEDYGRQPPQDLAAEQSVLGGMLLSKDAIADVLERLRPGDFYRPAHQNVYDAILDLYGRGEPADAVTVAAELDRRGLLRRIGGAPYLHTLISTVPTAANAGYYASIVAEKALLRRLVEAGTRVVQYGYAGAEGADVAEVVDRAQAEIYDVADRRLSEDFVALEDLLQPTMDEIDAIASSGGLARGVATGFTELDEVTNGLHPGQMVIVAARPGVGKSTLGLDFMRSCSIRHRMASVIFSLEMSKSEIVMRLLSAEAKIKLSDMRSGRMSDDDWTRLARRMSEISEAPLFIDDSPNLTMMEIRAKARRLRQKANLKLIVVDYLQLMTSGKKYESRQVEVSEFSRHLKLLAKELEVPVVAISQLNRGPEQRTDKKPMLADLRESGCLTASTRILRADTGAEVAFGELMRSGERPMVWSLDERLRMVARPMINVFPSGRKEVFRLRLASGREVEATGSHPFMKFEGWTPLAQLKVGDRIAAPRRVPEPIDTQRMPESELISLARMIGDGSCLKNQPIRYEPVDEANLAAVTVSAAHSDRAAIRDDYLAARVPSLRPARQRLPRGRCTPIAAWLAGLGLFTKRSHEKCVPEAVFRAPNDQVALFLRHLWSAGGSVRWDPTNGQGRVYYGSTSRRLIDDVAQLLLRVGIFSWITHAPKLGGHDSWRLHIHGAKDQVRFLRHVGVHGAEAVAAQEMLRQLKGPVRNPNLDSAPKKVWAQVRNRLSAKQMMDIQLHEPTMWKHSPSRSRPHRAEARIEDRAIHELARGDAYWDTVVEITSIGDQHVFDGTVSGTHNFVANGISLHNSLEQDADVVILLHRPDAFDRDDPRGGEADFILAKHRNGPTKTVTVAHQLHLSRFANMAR

Protein RecA = biological target: T5, Protein RecA (Mycobacterium tuberculosis, UniProt P9WHJ3); test: Fluorescence Cell-Free Homogeneous Dose Retest to Identify Inhibitors of RecA-Intein Splicing Activity. [Related pubchem assays (depositor defined):AID2097, AID2223, AID489010, AID492950]; type: functional
T5 sequence (P9WHJ3 whole entry): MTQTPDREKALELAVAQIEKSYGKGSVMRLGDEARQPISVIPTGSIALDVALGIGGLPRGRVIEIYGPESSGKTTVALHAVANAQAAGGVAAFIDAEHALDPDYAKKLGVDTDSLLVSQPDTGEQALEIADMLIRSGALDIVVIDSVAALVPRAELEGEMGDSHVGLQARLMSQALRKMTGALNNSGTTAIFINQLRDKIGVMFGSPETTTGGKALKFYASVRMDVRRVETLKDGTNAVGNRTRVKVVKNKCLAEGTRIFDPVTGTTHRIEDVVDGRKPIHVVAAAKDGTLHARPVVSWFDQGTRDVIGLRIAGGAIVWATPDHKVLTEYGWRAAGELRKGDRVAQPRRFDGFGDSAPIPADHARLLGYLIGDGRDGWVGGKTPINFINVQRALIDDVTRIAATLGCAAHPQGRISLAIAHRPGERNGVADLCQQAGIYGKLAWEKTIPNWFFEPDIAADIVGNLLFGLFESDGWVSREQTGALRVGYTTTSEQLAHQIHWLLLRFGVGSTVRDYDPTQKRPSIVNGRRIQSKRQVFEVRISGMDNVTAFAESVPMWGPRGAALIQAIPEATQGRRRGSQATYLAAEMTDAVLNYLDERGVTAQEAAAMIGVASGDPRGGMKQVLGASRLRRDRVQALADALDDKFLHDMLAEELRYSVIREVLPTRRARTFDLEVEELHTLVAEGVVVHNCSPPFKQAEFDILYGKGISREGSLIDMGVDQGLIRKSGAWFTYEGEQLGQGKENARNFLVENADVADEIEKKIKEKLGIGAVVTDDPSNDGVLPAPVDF

INS1 = test: INS-1E survival protection against cytokine death – cell-based, luminescence, retest, dose response (AID 449756); type: functional; details: Rattus norvegicus;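 note: cell death triggered by IL-1 beta plus TNF-alpha plus IFN-gamma mixture; protective hits raise ATP signal compared with cytokine alone wells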
Genome polyprotein = Genome polyprotein (dengue virus type 2, UniProt P29990); test: flavivirus cap methylation enzyme inhibition – biochemical, confirmation dose response, primary screen (AID 588689); type: functional
[10] = biological target: T6, Calpain-2 catalytic subunit (Sus scrofa, UniProt P43367); test: m-calpain protease blockers, concentration series – biochemical, fluorogenic peptide substrate, dose response (AID 1420); type: functional
T6 sequence (P43367 whole entry): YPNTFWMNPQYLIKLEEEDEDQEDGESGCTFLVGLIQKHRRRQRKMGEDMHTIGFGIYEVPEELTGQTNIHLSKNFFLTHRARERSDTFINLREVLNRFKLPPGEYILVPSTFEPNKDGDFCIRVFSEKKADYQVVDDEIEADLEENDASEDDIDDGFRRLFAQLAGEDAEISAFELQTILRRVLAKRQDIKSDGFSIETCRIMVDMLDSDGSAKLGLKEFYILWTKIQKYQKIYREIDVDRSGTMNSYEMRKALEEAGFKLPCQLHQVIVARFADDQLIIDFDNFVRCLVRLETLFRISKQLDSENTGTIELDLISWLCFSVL

[11] = Luminescence Cell-Based Dose Retest to Confirm Inhibitors of Cancer Stem Cells. [Related pubchem assays (depositor defined):AID2717, AID2721]; type: functional; details: Homo sapiens
[12] = biological target: Heat shock protein HSP 90-alpha (Homo sapiens, UniProt P07900); type: functional, organism-based
Large T antigen = Large T antigen (Simian virus 40, UniProt P03070); type: functional, Betapolyomavirus macacae;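 note: Confirmatory-stage PubChem screen for compounds that inhibit SV40 T antigen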
P388/ADR = test: cells; type: functional; details: Mus musculus
P388 = test: cells; type: functional; details: Mus musculus

Sequence of FAD-linked sulfhydryl oxidase ALR (P55789 whole entry): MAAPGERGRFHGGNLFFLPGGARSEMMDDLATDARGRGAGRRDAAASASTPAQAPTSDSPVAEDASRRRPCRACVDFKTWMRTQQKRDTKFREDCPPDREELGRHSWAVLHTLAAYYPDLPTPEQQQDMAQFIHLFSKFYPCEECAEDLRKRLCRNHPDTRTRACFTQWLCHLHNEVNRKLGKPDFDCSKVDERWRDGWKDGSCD
Sequence of Large T antigen (P03070 whole entry): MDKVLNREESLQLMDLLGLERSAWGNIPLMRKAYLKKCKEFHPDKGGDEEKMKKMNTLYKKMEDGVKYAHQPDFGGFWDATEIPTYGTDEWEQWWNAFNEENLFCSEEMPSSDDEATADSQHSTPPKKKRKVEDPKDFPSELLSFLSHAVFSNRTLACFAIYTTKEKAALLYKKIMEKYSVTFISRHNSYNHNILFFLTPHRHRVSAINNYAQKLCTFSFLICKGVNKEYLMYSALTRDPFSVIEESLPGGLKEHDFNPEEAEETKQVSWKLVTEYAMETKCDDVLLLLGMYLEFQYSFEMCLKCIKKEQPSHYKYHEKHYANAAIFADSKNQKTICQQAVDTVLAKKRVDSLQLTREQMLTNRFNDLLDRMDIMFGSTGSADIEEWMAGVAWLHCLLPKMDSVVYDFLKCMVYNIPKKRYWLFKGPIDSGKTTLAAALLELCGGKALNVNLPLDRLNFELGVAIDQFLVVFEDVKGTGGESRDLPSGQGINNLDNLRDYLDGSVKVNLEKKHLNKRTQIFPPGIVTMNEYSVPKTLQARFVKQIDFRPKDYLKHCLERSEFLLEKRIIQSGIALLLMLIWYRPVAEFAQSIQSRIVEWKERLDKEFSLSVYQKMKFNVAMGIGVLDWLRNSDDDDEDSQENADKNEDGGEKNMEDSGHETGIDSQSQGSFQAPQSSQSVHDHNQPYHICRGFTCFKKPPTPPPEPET
Sequence of Genome polyprotein (P29990 2492-3391 limits assumed): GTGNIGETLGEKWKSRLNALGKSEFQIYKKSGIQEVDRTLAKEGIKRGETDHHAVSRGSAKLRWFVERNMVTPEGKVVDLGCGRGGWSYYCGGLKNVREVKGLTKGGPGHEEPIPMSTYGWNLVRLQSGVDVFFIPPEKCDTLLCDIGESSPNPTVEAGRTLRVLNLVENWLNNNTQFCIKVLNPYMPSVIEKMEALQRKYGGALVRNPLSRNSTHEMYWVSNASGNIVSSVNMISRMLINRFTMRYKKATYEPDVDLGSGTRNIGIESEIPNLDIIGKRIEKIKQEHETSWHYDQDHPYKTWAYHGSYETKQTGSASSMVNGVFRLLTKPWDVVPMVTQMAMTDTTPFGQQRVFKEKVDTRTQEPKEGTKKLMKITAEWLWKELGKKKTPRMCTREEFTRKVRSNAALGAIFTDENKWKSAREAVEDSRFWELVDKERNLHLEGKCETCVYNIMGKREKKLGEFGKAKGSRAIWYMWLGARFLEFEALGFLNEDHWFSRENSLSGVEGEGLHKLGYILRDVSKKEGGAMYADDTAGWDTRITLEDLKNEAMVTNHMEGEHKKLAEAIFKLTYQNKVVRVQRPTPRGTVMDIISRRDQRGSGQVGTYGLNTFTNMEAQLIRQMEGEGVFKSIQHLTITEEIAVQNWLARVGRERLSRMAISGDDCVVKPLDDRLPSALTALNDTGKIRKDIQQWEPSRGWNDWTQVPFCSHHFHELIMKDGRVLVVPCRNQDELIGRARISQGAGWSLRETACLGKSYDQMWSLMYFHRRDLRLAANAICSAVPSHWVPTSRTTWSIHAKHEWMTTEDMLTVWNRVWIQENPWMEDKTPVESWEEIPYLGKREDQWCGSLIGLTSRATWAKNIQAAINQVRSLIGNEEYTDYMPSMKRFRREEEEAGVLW

O=C(Nc1ccc(F)cc1)c1cccc(N2C(=O)c3ccccc3C2=O)c1
IC50 [1]: 11.1 µM (active)

Oc1ccc(Br)cc1-c1cc(-c2ccco2)[nH]n1
AC50 [2]: 3.51 µM (active)

O=C(CCl)Nc1ccc(-c2ccccc2)cc1
EC50 [3]: 4.59 µM (inconclusive) | EC50 [4]: 9.64 µM (active) | EC50 [5]: 1.77 µM (active) | EC50 [6]: 1.69 µM (active) | EC50 [7]: < 6 µM (inconclusive) | AC50 [8]: 7.3 µM (active) | AC50 [9]: 20.5 µM (active) | EC50 (Protein RecA): 0.587 µM (active)

C=C1c2cccc(OC)c2O[C@H](C(=O)OCC)[C@@H]1CC(CC)CCCC (some centres undefined)
IC50 [1]: 52.1 µM (active)

C[N+]1=C(/C=C/Nc2ccccc2Cl)C(C)(C)c2ccccc21
AC50 (INS1): 7.84 µM (active) | IC50 [1]: 5.96 µM (active)

COc1cc(/C=C2\SC(=S)N(CCCCC(=O)O)C2=O)ccc1OS(=O)(=O)c1ccc(C)cc1
IC50 (Genome polyprotein): 39.8 µM (active) | IC50 [1]: 4.16 µM (active)

O=[N+]([O-])c1ccc(CSC2=NCCN2)cc1
AC50 [2]: 0.04 µM (active)

O=C1C2CCCCC2C(=O)N1c1ccc(NC2CCN(Cc3ccccc3)CC2)c([N+](=O)[O-])c1 (centres undefined)
IC50 [10]: > 50 µM (not active)

COc1ccc2cc3cc(C(=O)NCc4ccco4)oc3nc2c1
IC50 [1]: 10.1 µM (active)

Fc1ccc(CSc2nnc(-c3cnccn3)n2Cc2ccco2)cc1
AC50 [2]: 3.85 µM (active)

CC(C)Oc1ccc(C(=O)/C=C2/C(=O)Nc3ccccc32)cc1
AC50 [11]: 4.39 µM (active) | AC50 [12]: 1.94 µM (active)

CCCc1ccc(C(=O)NNC(=O)c2ccc(Br)cc2)cc1
IC50 [1]: 5.88 µM (active)

CCC(C)C(=O)N1CCc2cc(-c3csc(N)n3)ccc21 (centres undefined)
AC50 [2]: 0.3 µM (active)

CCCCOc1ccc(CNC(=O)NS(=O)(=O)c2ccc(OCC(C)C)cc2)cc1
IC50 [1]: 14.8 µM (active)

CCN(C(=O)C1CCCN(c2nc(-c3ccc(OC)cc3)no2)C1)c1ccc(OC)cc1 (centres undefined)
AC50 [12]: 7.81 µM (active)

COc1cccc(NC(S)=Nc2ccc(O)cc2)c1
IC50 (Large T antigen): 5.64 µM (active)

O=C(O)c1cccc(NC(=O)c2cccc(NC(=O)C3CCCO3)c2)c1 (centres undefined)
AC50 [8]: 21.2 µM (active)

O=C(/C=C/c1ccccc1)CCN1CCCCC1
AC50 [12]: 3.9 µM (active)

O=S(=O)(c1c(F)cccc1F)N(CCc1ccc(F)cc1)C[C@@H](O)COCc1ccccc1
AC50 [12]: 0.392 µM (active)

CCC(C(C)N1CC(=O)NC(=O)C1)N1CC(=O)NC(=O)C1 (centres undefined)
GI50 (P388/ADR): 6.12 µM (inactive) | GI50 (P388): < 0.0316 µM (active)

Cc1cc(-c2nnc(S)n2/N=C/C(Cl)=C/c2ccccc2)[nH]n1
AC50 [2]: 0.109 µM (active)

O=C(O)C1Cc2c([nH]c3ccccc23)C=N1 (centres undefined)
GI50 (P388/ADR): > 100 µM (inactive) | GI50 (P388): > 100 µM (inactive)

CCOc1cc(/C=N/Nc2ccc(C(=O)O)cc2)ccc1OC(=O)c1ccccc1C
IC50 [10]: 5.07 µM (active)

C(=C\c1ccccc1)/C=N/N1CCN(Cc2ccccc2)CC1
IC50 [10]: > 50 µM (not active)

COc1cc(/C=N/NC(=O)c2ccc(Cn3cc([N+](=O)[O-])cn3)o2)cc(Br)c1O
IC50 (Large T antigen): 24 µM (active)

C/C(=N\NC(=O)CCCNc1cccc(C)c1)c1ccncc1
AC50 [2]: 2.59 µM (active)

C/C(=N\Nc1ccc(Cl)cc1)c1ccccn1
AC50 [2]: 1.03 µM (active)
